Experiments:
[1] = system: carrageenan pleurisy (3 hour exudate volume); assay: Carrageenan Pleurisy Assay (CPA), acute anti-inflammatory activity; assay type: in vivo; conditions: statement in words
Procedure: Following the procedure described by Vinegar et al in Proc. Soc. Exp. Biol. Med.,143, 711, (1973), and recently modified (Vinegar et al., Eur. J. Rheum. Inflam. 1, 204 (1978)) the acute anti-inflammatory activity of 4-amino-1-(2-deoxy-β-D-ribofuranosyl)-1H-imidazo-[4,5-c]-pyridine was compared with that of known anti-inflammatory drugs. The average 3 hour exudate volume for each drug-treated group was determined and the % inhibition relative to solvent-fed control animals calculated, the ED50 (mg/kg of body weight) being the dose required to reduce the 3 hour exudate volume by 50%. There were 5 animals in each drug-treated group and the control group.

Analgesic activity = conditions: in vivo
[2] = system: mouse neutrophil chemotaxis; assay: Mouse neutrophil chemotaxis; assay type: cell-based
inflammation = assay: Anti-inflammatory effectiveness by route; assay type: in vivo; conditions: orally, systemically and locally
[3] = Side effects / liver damage in animal models; conditions: in vivo
[4] = system: microbial purine nucleoside phosphorylase; conditions: Doskocil and Holy 1977; cited from earlier work

Compound: Nc1nccc2c1ncn2[C@H]1C[C@H](O)[C@@H](CO)O1 [4-amino-1-(2-deoxy-β-D-ribofuranosyl)-1H-imidazo-[4,5-c]-pyridine]
- inhibition of carrageenan-induced pleurisy [1]: potent inhibitor
- analgesic activity per se (Analgesic activity): no analgesic activity per se
- inhibition of mouse neutrophil chemotaxis [2]: potent inhibitor
- effectiveness as anti-inflammatory agent (inflammation): effective
- side effects associated with prostaglandin inhibitors (gastric damage, inhibition of platelet aggregation) [3]: free of the side effects
- side effects of the anti-inflammatory steroids [3]: free of the side effects

Compound: Nc1ncnc2c1ccn2[C@@H]1O[C@H](CO)[C@@H](O)[C@H]1O [7-deazaadenosine]
- substrate for microbial purine nucleoside phosphorylase [4]: not to be substrates

Compound: OC[C@H]1O[C@@H](n2ccc3c(O)ncnc32)[C@H](O)[C@@H]1O [7-deazainosine]
- substrate for microbial purine nucleoside phosphorylase [4]: not to be substrates

Compound: Nc1nc2c(nnn2[C@@H]2O[C@H](CO)[C@@H](O)[C@H]2O)c(=O)[nH]1 [S-azaguanosine]
- substrate for microbial purine nucleoside phosphorylase [4]: not to be substrates
